Data on six molecules can be found in PubChem BioAssay (NCI).

Among the test systems are EKVX NSCLC; NCI-H226 lung; TK-10 renal; RXF 393 renal; HL-60(TB) leukemia; NCI/ADR-RES ovarian; BT-549 breast; MDA-MB-231 breast; UO-31 renal; SNB-75 CNS.
Holding throughout (test): NCI-60 cell line screen, 48 h

SMILES strings stand for the structures.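 Results reflect a 48-hour exposure of cells in 96-well plates to compound at five concentrations. GI50: concentration for 50% inhibition of growth. TGI marks complete inhibition of growth.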 Some results are limits rather than exact numbers.

Regarding `COc1ccc(C2CC(c3cc(OC)c(OC)c(OC)c3)=NN2)cc1` (stereo unspecified), the GI50 in the experiment with EKVX NSCLC is 9.26 µM; in the experiment on NCI-H226 lung, 23.8 µM; in the experiment on TK-10 renal, 42 µM; with RXF 393 renal it was 9.71 µM; in the experiment with HL-60(TB) leukemia, 2.19 µM; with NCI/ADR-RES ovarian, 6.67 µM. Also, the GI50 with BT-549 breast is 8.02 µM; in the experiment with MDA-MB-231 breast, 22.5 µM; with UO-31 renal, 4.82 µM. The TGI with EKVX NSCLC was more than 100 µM; in the experiment with NCI-H226 lung, more than 100 µM; in the experiment on TK-10 renal it was more than 100 µM; in the experiment with RXF 393 renal, 92 µM; in the experiment on HL-60(TB) leukemia it was 12 µM; with NCI/ADR-RES ovarian, 94.8 µM. For the same molecule, the TGI with BT-549 breast, in the experiment on MDA-MB-231 breast and in the experiment with UO-31 renal was more than 100 µM each time.
Take `Cn1c(=O)c(Cc2ccc(F)cc2F)cc2cnc(NC3CCOCC3)nc21`: the GI50 in the experiment on NCI-H226 lung was more than 21.1 µM; with TK-10 renal it was 14.5 µM; with RXF 393 renal it was 18.5 µM; in the experiment with HL-60(TB) leukemia, more than 25 µM; in the experiment on NCI/ADR-RES ovarian, more than 15.5 µM; in the experiment on BT-549 breast, more than 16.6 µM. For the same molecule, the GI50 is more than 16.2 µM with MDA-MB-231 breast, 11.5 µM in the experiment with UO-31 renal and more than 17.5 µM in the experiment on SNB-75 CNS. Besides, the TGI in the experiment on NCI-H226 lung, with TK-10 renal, with RXF 393 renal, with HL-60(TB) leukemia, in the experiment with NCI/ADR-RES ovarian and in the experiment with BT-549 breast was more than 25 µM each time. The TGI in the experiment on MDA-MB-231 breast, in the experiment with UO-31 renal and with SNB-75 CNS was more than 25 µM in each case.
Take `O=[N+]([O-])c1ccc2[nH]cc(-c3c4ccccc4cc4[nH]c5ccc([N+](=O)[O-])cc5c34)c2c1`: the GI50 with EKVX NSCLC was 2.4 µM; in the experiment on NCI-H226 lung, 2.2 µM; in the experiment with TK-10 renal it was 2.59 µM; in the experiment on RXF 393 renal, 2.03 µM; in the experiment on NCI/ADR-RES ovarian, 2.91 µM; in the experiment with BT-549 breast, 2.29 µM. The GI50 in the experiment on MDA-MB-231 breast is 2.27 µM; with UO-31 renal, 1.76 µM; in the experiment on SNB-75 CNS, 1.84 µM. Besides, the TGI with EKVX NSCLC was 8.41 µM; with NCI-H226 lung, 5.8 µM; in the experiment with TK-10 renal, 6.79 µM; in the experiment on RXF 393 renal, 4.73 µM; in the experiment with NCI/ADR-RES ovarian, 11.5 µM; with BT-549 breast, 5.94 µM. The TGI with MDA-MB-231 breast turned out to be 5.83 µM; in the experiment with UO-31 renal, 5.1 µM; with SNB-75 CNS, 5.93 µM.
`NS(=O)(=O)c1ccc(-n2nc(-c3ccc(Cl)cc3)cc2C2=CC(=O)C=CC2=O)cc1`: the GI50 in the experiment with EKVX NSCLC is 28.4 µM; in the experiment on NCI-H226 lung, 13.8 µM; in the experiment on TK-10 renal, 12.5 µM; in the experiment on RXF 393 renal, 21.9 µM; in the experiment with HL-60(TB) leukemia, 34 µM; in the experiment on NCI/ADR-RES ovarian, 27.2 µM. In addition, the GI50 is 22.5 µM in the experiment on BT-549 breast, 13.7 µM in the experiment on MDA-MB-231 breast and 41.7 µM with UO-31 renal. The TGI with EKVX NSCLC is 91.1 µM; with NCI-H226 lung, 34.4 µM; with TK-10 renal it was 28.3 µM; in the experiment on RXF 393 renal, 46.7 µM; in the experiment on HL-60(TB) leukemia, more than 100 µM; in the experiment on NCI/ADR-RES ovarian, 63.5 µM. The TGI in the experiment with BT-549 breast was 70.8 µM; in the experiment with MDA-MB-231 breast, 32 µM; with UO-31 renal, more than 100 µM.
`Cc1ccc(Cl)cc1Nc1nc(C(F)(F)F)ccc1C(=O)Oc1ccc(Cl)cc1`: the GI50 is 7.26 µM in the experiment with EKVX NSCLC; 12.1 µM in the experiment on NCI-H226 lung; 5.57 µM with TK-10 renal; 3.97 µM in the experiment on RXF 393 renal; 15.6 µM in the experiment with NCI/ADR-RES ovarian; 15.6 µM in the experiment on BT-549 breast. In addition, the GI50 in the experiment on MDA-MB-231 breast is 4.53 µM; in the experiment with UO-31 renal, 16 µM; in the experiment with SNB-75 CNS it was 6.57 µM. Also, the TGI in the experiment on EKVX NSCLC turned out to be 22.8 µM; in the experiment on NCI-H226 lung it was 36.1 µM; in the experiment on TK-10 renal, 18.6 µM; in the experiment on RXF 393 renal, 16 µM; with NCI/ADR-RES ovarian, 46.6 µM; with BT-549 breast, 36.3 µM. Further, the TGI in the experiment on MDA-MB-231 breast was 20.6 µM; in the experiment with UO-31 renal it was 41.8 µM; in the experiment with SNB-75 CNS it was 23.3 µM.
Consider `NC(=O)NC(=O)CI`, for which the GI50 with NCI-H226 lung was 6.79 µM; with RXF 393 renal, 5.97 µM; with HL-60(TB) leukemia it was 1.94 µM; in the experiment with NCI/ADR-RES ovarian, 18.7 µM; in the experiment with BT-549 breast, 4.28 µM; with MDA-MB-231 breast it was 6.99 µM. The GI50 in the experiment with UO-31 renal is 1.68 µM; in the experiment with SNB-75 CNS it was 15.2 µM. For the same molecule, the TGI in the experiment with NCI-H226 lung was determined as 28.2 µM; with RXF 393 renal, 18.3 µM; in the experiment on HL-60(TB) leukemia, 4.02 µM; in the experiment on NCI/ADR-RES ovarian it was 41.9 µM; in the experiment with BT-549 breast, 11.3 µM; with MDA-MB-231 breast, 19.9 µM. Further, the results for the TGI in the experiment on UO-31 renal and in the experiment with SNB-75 CNS were 3.19 µM and 29.4 µM, respectively.
